Blank lines part the entries; values can stand above or below the compound they belong to.
Assays:
[1] = test system: protoplasts from wild type tobacco; assay: Quantitative analysis of auxin mediated cell expansion of immobilised tobacco protoplasts (automated imaging); type: cell-based; conditions: auxin 0 to 50 μM, at least 200 cells per group
Source text: We compared the effect of auxin concentration on cell elongation over a continuous period (4-6 days) using tobacco leaf protoplasts from wild type tobacco and from the tobacco line overexpressing AtPIN8 translationally fused with Venus fluorescent marker protein (PIN8VenusOx). Two strategies were used: • effect of PIN5 and PIN8 expression on cell elongation using transient transformation with dried DNA, protoplast immobilization and culture with manual cell imaging and tracking. • effect of auxin concentration (0, 1 pM, 10 pM, 100 pM, 500 pM, 1 nM, 10 nM, 100 nM, 500 nM, 1 μM, 2.5 μM, 5 μM, 10 μM, 25 μM and 50 μM) and quantitative analysis of cell elongation to compare wild type and PIN8VenusOx protoplasts using automated imaging (every 24 h for 4 days, 5 reference points) and computational image analysis.
Protoplasts were isolated and immobilized using our procedure described in the current patent application. Culture medium with final auxin concentration of 0, 1 pM, 10 pM, 100 pM, 500 pM, 1 nM, 10 nM, 100 nM, 500 nM, 1 μM, 2.5 μM, 5 μM. 10 μM. 25 μM and 50 μM was used for washing steps and cell culture afterwards in corresponding wells. […] This experiment allowed to extract quantitative information for hundreds cells per group, the whole experiment was performed in a single 96-well plate. […]

auxin sensor construst = assay: Luciferase activity measurement with auxin sensor construct (firefly/renilla ratio); type: cell-based
Source text: Our further aim to combine PPTT with amiRNA and other functional screenings such as split-GFP, split-YFP etc. Since co-expression of vectors works perfect, split screenings could be done straight away using confirmed interacting pair. Transformation with the luciferase reporter and subsequent luciferase activity measurements were successfully tested using auxin sensor construst (FIG. 19).

PIN1 = assay: Expression of amiR^PIN1 in stable transgenic lines, plant phenotypes; type: in vivo, Arabidopsis (Col-0 wild-type background); conditions: independent lines

Compound: auxin
cell expansion of developing protoplasts [1]: Concentration-depended cell expansion

effect on firefly/renilla ratio (auxin sensor construst): Concentration-dependent effect
Compound: O=C(O)Cc1cccc2ccccc12 [NAA]

Compound: amiR^P33: artificial miRNA TACGATTTGAACCATGAGGCC, SEQ ID NO:10 (expressed or natural sequence)
rosette leaf phenotype of transgenic plants (PIN1; 2 weeks after germination): Altered phyllotaxis pattern of rosette leaves
shoot phenotype of transgenic lines (PIN1): Altered shoot phyllotaxis and pin1-like shoot phenotypes

— patent US11261454B2, “Method for introducing a polynucleotide into non-adhesively growing plant cells” (ScreenSYS GmbH, priority 2010, dated 2022)
